In ChEMBL document CHEMBL1148596, “Discovery of nonpeptidic small-molecule AP-1 inhibitors: lead hopping based on a three-dimensional pharmacophore model” (J Med Chem, 2006) one finds inhibition and IC50 data, which are given here for 12 compounds.

The target of assay [1] is T1, Transcription factor AP1 (Homo sapiens, UniProt P05412+P01100). The assay can be described thus: Inhibitory activity on AP1 DNA-binding at 1 mM. Type of assay: protein-complex assay.
For assay [2], the target named is T1, Transcription factor AP1. The assay can be described thus: Inhibitory activity on AP1 DNA-binding at 500 uM. Type of assay: protein-complex assay.
Assay [3] addresses T2, Transcription factor AP1 (Homo sapiens, UniProt P01100+P05412). The assay can be described thus: (§1) Inhibitory activity on AP1 using ELISA based AP1 DNA binding. Type of assay: protein-complex assay.
In assay [4] the target is T1, Transcription factor AP1. In words: (§2) Inhibition of the expression of AP1-luciferase by TPA-stimulated NIH3T3 cells. Format: cell-based. Conditions: nih3t3.
Assay [5] concerns the target T1, Transcription factor AP1. The assay is described as §1. Type of assay: protein-complex assay.
Assay [6] addresses T2, Transcription factor AP1. The assay is described as §2. Format: cell-based.

T1 sequence (P05412 whole entry): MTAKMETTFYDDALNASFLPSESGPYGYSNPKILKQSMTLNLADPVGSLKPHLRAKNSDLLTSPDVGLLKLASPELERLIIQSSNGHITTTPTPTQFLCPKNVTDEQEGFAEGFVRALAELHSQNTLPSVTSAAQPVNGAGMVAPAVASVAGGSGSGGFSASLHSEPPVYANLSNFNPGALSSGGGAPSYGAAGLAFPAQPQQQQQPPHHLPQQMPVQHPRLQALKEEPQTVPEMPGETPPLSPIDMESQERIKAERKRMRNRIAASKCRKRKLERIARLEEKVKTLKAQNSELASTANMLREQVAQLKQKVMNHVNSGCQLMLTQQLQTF
T1 sequence (P01100 whole entry): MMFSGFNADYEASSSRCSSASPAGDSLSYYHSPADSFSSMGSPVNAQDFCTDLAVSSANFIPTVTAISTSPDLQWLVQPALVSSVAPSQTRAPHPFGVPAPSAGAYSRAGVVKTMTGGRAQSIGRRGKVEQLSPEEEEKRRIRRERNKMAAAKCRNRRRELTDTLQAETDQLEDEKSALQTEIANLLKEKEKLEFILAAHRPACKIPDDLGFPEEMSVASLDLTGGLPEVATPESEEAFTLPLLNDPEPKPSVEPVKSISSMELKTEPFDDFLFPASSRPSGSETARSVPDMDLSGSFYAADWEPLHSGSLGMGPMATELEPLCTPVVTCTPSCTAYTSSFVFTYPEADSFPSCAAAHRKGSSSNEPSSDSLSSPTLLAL
T2 sequence (P05412 whole entry): as the sequence (P05412 whole entry) above
T2 sequence (P01100 whole entry): as the sequence (P01100 whole entry) above

Broadly, the inhibition is how much of the control response was suppressed. The IC50 is the midpoint of a concentration-inhibition curve. Read a high IC50 as lower potency. `CC(C)COc1ccc(C(=O)c2cccc(CCC(=O)O)c2)cc1`: the values for the inhibition in assay [1] and in assay [2] were 14% and 10%, respectively. For the same compound, the IC50 in assay [3] is more than 2000 µM.
With `CC(C)CC=C1CCC2(CC1)SC[C@@H](C(=O)O)N2C(=O)CCCC(C)C` (stereo partly drawn), the IC50 amounted to 13.3 µM in assay [4] and 460 µM in assay [5].
For `CC(C)COc1ccc(C(=O)c2ccc(OCc3ccccc3)cc2)cc1CCC(=O)O`, the inhibition in assay [2] was 45%.
For `CC(C)CCC=C1CCC2(CC1)SC[C@@H](C(=O)O)N2C(=O)CCC(C)C` (stereo partly drawn), the figures for the IC50 in assay [4] and in assay [5] were 11.8 µM and 650 µM, respectively.
With `CC(C)COc1ccc(C(=O)c2ccc(OCC(C)C)c(CCC(N)=O)c2)cc1`, the inhibition in assay [2] stood at 5%.
For `CC(C)COc1ccc(C(=O)c2ccccc2)cc1CCC(=O)O`, the results for the inhibition in assay [1] and in assay [2] were 9% and 7%, respectively. The compound further yielded an IC50 in assay [3] of more than 2000 µM.
Regarding `CC(C)COc1ccc(C(=O)c2ccc(OCC(C)C)c(CCC(=O)O)c2)cc1`, the IC50 turned out to be 5 µM in assay [6] and 610 µM in assay [3]. The inhibition in assay [1] worked out at 91%; in assay [2], 28%.
Regarding `CC(C)COc1cccc(C(=O)c2ccc(OCC(C)C)c(CCC(=O)O)c2)c1`, the IC50 in assay [6] turned out to be 5.8 µM; in assay [3], 600 µM.
For `CC(C)COc1ccc(C(=O)c2ccc(OCC(C)C)cc2)cc1`, the inhibition in assay [2] is 3%.
Consider `CCCOc1ccc(C(=O)c2ccc(OCC(C)C)cc2)cc1CCC(=O)O`, for which the inhibition in assay [1] came out at 55%; in assay [2], 26%. Besides, the IC50 in assay [3] came out at 910 µM.
On to `CCCOc1ccc(C(=O)c2ccc(OCC(C)C)c(CCC(=O)O)c2)cc1`, for which the inhibition was determined as 42% in assay [1] and 25% in assay [2]. The IC50 in assay [3] turned out to be 930 µM.
Taken in the same sequence, the figures for `CC(C)COc1ccc(C(=O)c2ccc(OCc3ccccc3)c(CCC(=O)O)c2)cc1` were 97%, 51% and 420 µM.
